The text below walks through data of patent publication US9387213B2, “Small molecules inhibiting oncoprotein Myc” (Health Research, Inc., priority 2012, dated 2016).

Broadly, the half-life is the time needed for the level to fall by half in the phase considered. For orientation: microsomal CLint means the capacity of the preparation to metabolise the compound, expressed as a volume cleared per time. A higher microsomal CLint goes with rapid turnover.

Molecules are shown by their SMILES.

For data set [1], the system named is HO15.19 cells reconstituted with exogenous C-MYC. The experiment in a line: Inhibition of C-MYC-dependent proliferation, cell cycle distribution by FACS. The data set is classed as cell-based, rat. The following applies: 3 μM. Here is the method:
In parallel, […] was evaluated for the ability to inhibit C-MYC-dependent proliferation in HO15.19 cells reconstituted with exogenous C-MYC. HO15.19 cells are the only cell line that is capable of continuous proliferation in the absence of any MYC protein expression, a feature that makes this line a reference in the field.

A short description of another data set: in vitro. The following applies: microsomes, pH 7.4; for Percent Remaining 0 min: 0 h; for Percent Remaining 0 min / Percent Remaining 10 min / Percent Remaining 20 min / Percent Remaining 30 min / Percent Remaining 60 min: 1 μM; for Percent Remaining 30 min: 0.5 h; for Percent Remaining 60 min: 1 h. The method, then:
Additionally, several of the N77A7 analogs were subjected to the test for the metabolic stability in human and mouse liver microsomes. Briefly, 1 μM of test compound was incubated with microsomal protein (human liver microsomes: 0.5 mg/mL; mouse liver microsomes 0.5 mg/mL) and buffer (100 mM potassium phosphate, pH 7.4, 5 mM magnesium chloride). The positive control was 5 μM testosterone. The reaction was equilibrated at 37 C in a shaking water bath for 3 to 5 minutes. After equilibration, an aliquot was removed and combined with 50/50 acetonitrile/water containing 0.1% formic acid and internal standard to terminate the reaction. 1 mM NADPH was immediately added and the tube was returned to the water bath. Five sample time points were taken (0, 10, 20, 30, and 60 minutes). Aliquots were removed and combined with 50/50 acetonitrile/water containing 0.1% formic acid and internal standard to terminate the reaction. The samples were mixed for 10 minutes and centrifuged. The supernatant from each sample was diluted (if necessary) and then transferred to vials for analysis by LC-MS/MS for the test compound and internal standard without calibration standards. The percent remaining at each time point was determined by the test compound's peak area response ratio versus the 0 minute sample.

The next data set concerns SK-Mel-103 xenografts. The experiment in a line: SK-Mel-103 xenograft efficacy study CBL2.5-01-Ms-2, N77A7 in Captisol. Type of data set: in vivo, athymic nude mice. The method, then:
FIG. 9 illustrates the effect of N77A7 on survival of SK-Mel-103 tumor-bearing mice. […] When at least one tumor on the majority of mice reached ˜50 mm^3, mice were randomly divided into treatment groups. Starting on Day 1 of treatment, mice were treated daily by ip injection of either 50 mg/kg N77A7 or the equivalent amount of Captisol vehicle. Mice were followed until tumors reached 1000 mm^3 or tumors ulcerated or 28 days of treatment, whichever came first. The proportion of surviving mice is depicted in the graph. The survival of N77A7 and vehicle control-treated mice was compared using the Log Rank test. p-value<0.05 indicates significance.
FIG. 10 illustrates the effect of Captisol and N77A7 on mouse weight. (A) Mean change in body weight as determined by calculating the % starting weight, which is the weight of a mouse on Day X divided by the weight of the same mouse on Day 1 and multiplied by 100. […] (C)-(D) Changes in mouse weight for individual mice in each treatment group calculated as described in (A).
FIG. 11 illustrates the effect of 50 mg/kg N77A7 on tumor growth. (A) Athymic nude mice were inoculated with 1×10^6 SK-Mel-103 tumor cells in each rear flank. When at least one tumor on a mouse was ˜50 mg for the majority of mice, treatment commenced. Mice were treated once daily ip with 50 mg/kg N77A7 or an equivalent amount of vehicle control (i.e., Captisol). Tumors were measured by digital caliper on Day 1 and then twice per week thereafter. Tumor measurements were made blind to the treatment each mouse received. Data is presented as the mean tumor volume on each measurement day. Comparison of tumor volume between treatment groups was made using unpaired t-tests. P value <0.05 is significant. (B) Same as (A) except data is presented as mean fold tumor growth, which was calculated by dividing the mean tumor volume on Day X by that of the same tumor on Day 1.
FIG. 12 illustrates the effect N77A7 on tumor doubling time and the time to reach 1000 mm^3 Growth curves for each tumor within each treatment group were plotted (tumor volume vs days from start of treatment). Regression analysis using the exponential trendline in Excel was used to generate an equation for each curve. From the equation, the tumor doubling time (A) and the time to reach the experimental endpoint of 1000 mm^3 was calculated. Error bars represent the standard error of the mean and p values were obtained using unpaired, two-sided t-tests.
Animal study protocol CBL2.5-01-Ms-2. N77A7 formulated in Captisol was prepared. Both N77A7 and Captisol vehicle were prepared weekly according to the needs of the study. SK-Mel-103 melanoma cells (1×10^6 cells/inoculation were inoculated into each rear flank of 20 athymic nude (7.5 week old males) on Sep. 11, 2009. Prior to commencement of treatment, mice were randomly assigned to treatment groups with 2 of 4 mice per cage assigned to the Captisol vehicle control group and the other 2 mice to the 50 mg/kg N77A7 group. When at least one tumor per mouse for the majority of mice reached ˜50 mm^3 in tumor volume, treatment commenced. The first day of treatment (Day 1) was Sep. 21, 2009. Administration of N77A7 and vehicle control was performed daily by ip administration of 2.5 mg/ml solution of N77A7 or equivalent amount of vehicle control at 500 μl/25 g mouse body weight. Mouse body weight measurements were performed prior to commencement of treatment and Mondays-Wednesdays-Fridays thereafter. Administration volumes were adjusted during the course of the study based on the latest weight measurements. Treatments were administered. Tumor measurements were performed without prior knowledge of which treatment group each mouse belonged (i.e., blinded to treatment groups). When at least one tumor of a mouse reached 1000 mm^3 or tumor ulceration was evident, mice were euthanized according to the approved IACUC protocol (CBL 1096M). The experiment was completed on Day 18 (Oct. 8, 2009). […]

Where [2] appears, read: 50 mg/kg daily ip in Captisol, necropsy of several mice.

`CCN(CC)c1ccc(/C=N/NC(=O)Cn2nnc(-c3ccccc3)n2)c(O)c1` [Compound N77A7]: the “HO15.19-C-MYC G2” value in data set [1] (percent of cells in G2 phase) is listed as 15.39%. Further, the “HO15.19-C-MYC S” value in data set [1] (percent of cells in S phase) was 34.88%. Further, in “in vitro” (human), the “Percent Remaining 0 min” value is recorded as 100%, the “Percent Remaining 10 min” value is 87%, the “Percent Remaining 20 min” value is 30% and the “Percent Remaining 30 min” value is recorded as 1− Percent. In “in vitro” (human), the “Percent Remaining 60 min” value is less than 1.0%, the half-life at 1 µM is 13.1 min and the intrinsic clearance (microsomal CLint) at 1 μM amounted to 110 µL/min/mg. In “in vitro” (mouse), the “Percent Remaining 0 min” value worked out at 100%, the “Percent Remaining 10 min” value is reported as 25%, the “Percent Remaining 20 min” value is 8.9% and the “Percent Remaining 30 min” value is reported as 4.5%. Further, in the data set “in vitro” (mouse), the “Percent Remaining 60 min” value was less than 1.0%, the half-life at 1 µM came out at 5.2 min and the microsomal CLint at 1 μM was 270 µL/min/mg. Moreover, the “treated mice remaining in the study (survival)” value in the data set on SK-Mel-103 xenografts (50 mg/kg daily ip in Captisol, after 14 days of treatment, all Captisol-treated mice euthanized, logrank P=0.0083) is recorded as 5 of the 10. In the data set on SK-Mel-103 xenografts (setting [2]), the “compound precipitation at necropsy” value was “no signs of compound precipitation within the abdominal cavity” and the peritonitis at necropsy entry was “no signs of peritonitis”. Also, the “maximum tumor growth inhibition” value in the data set on SK-Mel-103 xenografts (50 mg/kg daily ip in Captisol, versus Captisol vehicle) is reported as approximately 45%. In the data set on SK-Mel-103 xenografts (50 mg/kg daily ip, 14 consecutive days of treatment), the “effect on mouse weight” value is recorded as “did not cause any weight loss”. For the same molecule, the “growth delay in reaching the study endpoint (1000 mm3)” value with SK-Mel-103 xenografts (50 mg/kg daily ip, from regression of growth curves, p=0.0004) is 5 days. Besides, the “increase of doubling time for tumor growth” value with SK-Mel-103 xenografts (50 mg/kg daily ip, from regression of growth curves, p=0.0157) came out at 1 days. The “starting tumors left in the study by Day 14” value in the data set on SK-Mel-103 xenografts (50 mg/kg daily ip, control <50% (8/18)) was found to be 80%.
